Source: US6355799B1, “Substituted benzene compounds, process for their preparation, and herbicidal and defoliant compositions containing them” (ISK Americas Incorporated, priority 1997, dated 2002)

Experiments:
Assay type in all cases: in vivo
[1] = test system: redroot pigweed (Amaranthus retroflexus, AMARE); experiment: Pre-emerge test, greenhouse herbicide activity screening; conditions: rated 14 days after application, 0 = no damage, 100 = complete death
How it was run: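 Visual ratings on a 0-100 scale (0 no damage, 100 all plants dead) were taken at 14 days after treatment. Rates of 15-1000 g ai/ha in acetone, 187 l/ha, were sprayed onto soil one day after planting (pre-emerge) or onto 2-3 leaf plants with 0.25% v/v surfactant (post-emerge).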

[2] = test system: barnyardgrass (Echinochloa crus-galli, ECHCG); experiment: as above; conditions: rated 14 days after application, 0 = no damage, 100 = complete death
How it was run: (§1)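 Rating: 0–100 visual injury, 14 DAA. Application: acetone, 187 l/ha, 15–1000 g ai/ha, flat-fan track sprayer with nozzle 40–45 cm above soil or canopy. Post-emerge runs used 0.25% v/v surfactant on 2–3 leaf plants.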

[3] = test system: green foxtail (Setaria viridis, SETVI); experiment: as above; conditions: rated 14 days after application, 0 = no damage, 100 = complete death
How it was run: as §1

[4] = test system: ivyleaf morningglory (Ipomoea hederacea, IPOHE); experiment: as above; conditions: rated 14 days after application, 0 = no damage, 100 = complete death
How it was run: as §1

[5] = test system: johnsongrass (Sorghum halepense, SORHA); experiment: as above; conditions: rated 14 days after application, 0 = no damage, 100 = complete death
How it was run: as §1

[6] = test system: lambsquarters (Chenopodium album, CHEAL); experiment: as above; conditions: rated 14 days after application, 0 = no damage, 100 = complete death
How it was run: as §1

[7] = test system: large crabgrass (Digitaria sanguinalis, DIGSA); experiment: as above; conditions: rated 14 days after application, 0 = no damage, 100 = complete death
How it was run: as §1

[8] = test system: sicklepod (Cassia obtusifolia, CASOB); experiment: as above; conditions: rated 14 days after application, 0 = no damage, 100 = complete death
How it was run: as §1

[9] = test system: velvetleaf (Abutilon theophrasti, ABUTH); experiment: as above; conditions: rated 14 days after application, 0 = no damage, 100 = complete death
How it was run: as §1

[10] = test system: field corn (Zea mays L., var. Dekalb 535, CORN); experiment: Pre-emerge test, crop safety; conditions: rated 14 days after application, 0 = no damage, 100 = complete death
How it was run: as §1

[11] = test system: upland rice (Oryza sp., var. Tebonnet, RICE); experiment: Pre-emerge test, crop safety; conditions: rated 14 days after application, 0 = no damage, 100 = complete death
How it was run: as §1

[12] = test system: barnyardgrass (Echinochloa crus-galli, ECHCG); experiment: Post-emerge test, greenhouse herbicide activity screening; conditions: post-emerge, 14 days after application, rating scale 0-100
How it was run: (§2)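 Compounds in acetone were track-sprayed at 15-1000 g ai/ha (187 l/ha) on sandy loam pots: pre-emerge one day after seeding, post-emerge at 2-3 leaf stage with 0.25% v/v non-ionic surfactant. Phytotoxicity was rated 14 days later on a 0 (no damage) to 100 (complete death) scale.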

[13] = test system: green foxtail (Setaria viridis, SETVI); experiment: as above; conditions: post-emerge, 14 days after application, rating scale 0-100
How it was run: as §2

[14] = test system: ivyleaf morningglory (Ipomoea hederacea, IPOHE); experiment: as above; conditions: post-emerge, 14 days after application, rating scale 0-100
How it was run: as §2

[15] = test system: johnsongrass (Sorghum halepense, SORHA); experiment: as above; conditions: post-emerge, 14 days after application, rating scale 0-100
How it was run: as §2

[16] = test system: lambsquarters (Chenopodium album, CHEAL); experiment: as above; conditions: post-emerge, 14 days after application, rating scale 0-100
How it was run: as §2

[17] = test system: large crabgrass (Digitaria sanguinalis, DIGSA); experiment: as above; conditions: post-emerge, 14 days after application, rating scale 0-100
How it was run: as §2

[18] = test system: redroot pigweed (Amaranthus retroflexus, AMARE); experiment: as above; conditions: post-emerge, 14 days after application, rating scale 0-100
How it was run: as §2

[19] = test system: sicklepod (Cassia obtusifolia, CASOB); experiment: as above; conditions: post-emerge, 14 days after application, rating scale 0-100
How it was run: as §2

[20] = test system: velvetleaf (Abutilon theophrasti, ABUTH); experiment: as above; conditions: post-emerge, 14 days after application, rating scale 0-100
How it was run: as §2

[21] = test system: field corn (Zea mays L., var. Dekalb 535, CORN); experiment: Post-emerge test, crop safety; conditions: post-emerge, 14 days after application, rating scale 0-100
How it was run: (§3)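 Plants grown in 10 cm pots of sandy loam mix received acetone-dissolved compounds through a moving flat-fan nozzle. Doses ranged from 15 to 1000 g ai/ha. Pre-emerge pots were seeded one day earlier, post-emerge pots 8–21 days earlier. Fourteen days on, each pot was graded 0–100 for damage.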

[22] = test system: upland rice (Oryza sp., var. Tebonnet, RICE); experiment: Post-emerge test, crop safety; conditions: post-emerge, 14 days after application, rating scale 0-100
How it was run: as §3

## Cn1c(C(F)(F)F)cc(=O)n(-c2c(F)cc(Cl)c(OCC#N)c2N(C(=O)c2ccc(F)cc2F)C(=O)c2ccc(F)cc2F)c1=O [2-45]
[1]; 63 g ai/ha
  Pre-emerge Herbicidal Activity, phytotoxicity rating (0-100), AMARE: 70
[1]; 250 g ai/ha
  Pre-emerge Herbicidal Activity, phytotoxicity rating (0-100), AMARE: 100
[2]; 63 g ai/ha
  Pre-emerge Herbicidal Activity, phytotoxicity rating (0-100), ECHCG: 00
[2]; 250 g ai/ha
  Pre-emerge Herbicidal Activity, phytotoxicity rating (0-100), ECHCG: 0
[3]; 63 g ai/ha
  Pre-emerge Herbicidal Activity, phytotoxicity rating (0-100), SETVI: 0
[3]; 250 g ai/ha
  Pre-emerge Herbicidal Activity, phytotoxicity rating (0-100), SETVI: 30
[4]; 63 g ai/ha
  Pre-emerge Herbicidal Activity, phytotoxicity rating (0-100), IPOHE: 0
[4]; 250 g ai/ha
  Pre-emerge Herbicidal Activity, phytotoxicity rating (0-100), IPOHE: 0
[5]; 63 g ai/ha
  Pre-emerge Herbicidal Activity, phytotoxicity rating (0-100), SORHA: 0
[5]; 250 g ai/ha
  Pre-emerge Herbicidal Activity, phytotoxicity rating (0-100), SORHA: 0
[6]; 63 g ai/ha
  Pre-emerge Herbicidal Activity, phytotoxicity rating (0-100), CHEAL: 60
[6]; 250 g ai/ha
  Pre-emerge Herbicidal Activity, phytotoxicity rating (0-100), CHEAL: 90
[7]; 63 g ai/ha
  Pre-emerge Herbicidal Activity, phytotoxicity rating (0-100), DIGSA: 0
[7]; 250 g ai/ha
  Pre-emerge Herbicidal Activity, phytotoxicity rating (0-100), DIGSA: 0
[8]; 63 g ai/ha
  Pre-emerge Herbicidal Activity, phytotoxicity rating (0-100), CASOB: 0
[8]; 250 g ai/ha
  Pre-emerge Herbicidal Activity, phytotoxicity rating (0-100), CASOB: 0
[9]; 63 g ai/ha
  Pre-emerge Herbicidal Activity, phytotoxicity rating (0-100), ABUTH: 0
[9]; 250 g ai/ha
  Pre-emerge Herbicidal Activity, phytotoxicity rating (0-100), ABUTH: 70
[10]; 63 g ai/ha
  Pre-emerge phytotoxicity rating (0-100), crop damage, CORN: 0
[10]; 250 g ai/ha
  Pre-emerge phytotoxicity rating (0-100), crop damage, CORN: 0
[11]; 63 g ai/ha
  Pre-emerge phytotoxicity rating (0-100), crop damage, RICE: 0
[11]; 250 g ai/ha
  Pre-emerge phytotoxicity rating (0-100), crop damage, RICE: 0
[12]; 63 g ai/ha
  phytotoxicity rating ECHCG: 0
[12]; 250 g ai/ha
  phytotoxicity rating ECHCG: 0
[13]; 63 g ai/ha
  phytotoxicity rating SETVI: 0
[13]; 250 g ai/ha
  phytotoxicity rating SETVI: 40
[14]; 63 g ai/ha
  phytotoxicity rating IPOHE: 20
[14]; 250 g ai/ha
  phytotoxicity rating IPOHE: 30
[15]; 63 g ai/ha
  phytotoxicity rating SORHA: 0
[15]; 250 g ai/ha
  phytotoxicity rating SORHA: 0
[16]; 63 g ai/ha
  phytotoxicity rating CHEAL: 30
[16]; 250 g ai/ha
  phytotoxicity rating CHEAL: 30
[17]; 63 g ai/ha
  phytotoxicity rating DIGSA: 0
[17]; 250 g ai/ha
  phytotoxicity rating DIGSA: 0
[18]; 63 g ai/ha
  phytotoxicity rating AMARE: 10
[18]; 250 g ai/ha
  phytotoxicity rating AMARE: 20
[19]; 63 g ai/ha
  phytotoxicity rating CASOB: 0
[19]; 250 g ai/ha
  phytotoxicity rating CASOB: 20
[20]; 63 g ai/ha
  phytotoxicity rating ABUTH: 30
[20]; 250 g ai/ha
  phytotoxicity rating ABUTH: 40
[21]; 63 g ai/ha
  phytotoxicity rating CORN: 0
[21]; 250 g ai/ha
  phytotoxicity rating CORN: 5
[22]; 63 g ai/ha
  phytotoxicity rating RICE: 0
[22]; 250 g ai/ha
  phytotoxicity rating RICE: 10
